Data as given in ChEMBL document CHEMBL1201862, “PubChem BioAssay data set” (2004).
Activity calls are given as the source filed them.

What was measured:
[1] = target: T1, Ubiquitin-conjugating enzyme E2 N (Homo sapiens, UniProt P61088); assay type: functional
T1 sequence (P61088 whole entry): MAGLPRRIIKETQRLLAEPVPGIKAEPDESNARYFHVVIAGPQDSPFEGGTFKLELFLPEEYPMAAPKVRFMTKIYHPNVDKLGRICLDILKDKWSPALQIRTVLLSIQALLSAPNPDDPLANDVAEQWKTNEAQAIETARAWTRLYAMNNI

[2] = target: T1, Ubiquitin-conjugating enzyme E2 N; assay type: functional; remark: listed apart in the source
Bcl-2-related protein A1 = target: T2, Bcl-2-related protein A1 (Mus musculus, UniProt Q07440); assay type: functional;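 further: confirmatory dose–response counterscreen on Bfl-1, used to check hits from a UBC13 polyubiquitin inhibitor campaign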
T2 sequence (Q07440 whole entry): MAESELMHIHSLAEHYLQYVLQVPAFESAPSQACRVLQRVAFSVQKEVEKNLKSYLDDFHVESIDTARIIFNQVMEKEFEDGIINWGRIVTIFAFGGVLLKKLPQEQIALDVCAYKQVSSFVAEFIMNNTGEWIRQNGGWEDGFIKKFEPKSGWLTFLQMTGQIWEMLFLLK

[3] = Luminescence Cell-Based Dose Retest to Confirm Inhibitors of Cancer Stem Cells. [Related pubchem assays (depositor defined):AID2717, AID2721]; assay type: functional; conditions: Homo sapiens
[4] = target: Eukaryotic translation initiation factor 4E (Mus musculus, UniProt P63073); test: blockers of eIF4G binding by eIF4E – biochemical, TR-FRET, dose response (AID 855); assay type: functional;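 further: potency for disrupting eIF4E binding to eIF4GI seen as loss of FRET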
[5] = target: E3 ubiquitin-protein ligase XIAP (Homo sapiens, UniProt P98170); test: Counter Screen using XIAP-Bir3 for Chemical Antagonists of Bir1/2 domains of IAP-family anti-apoptotic proteins. [Related pubchem assays (depositor defined):AID1018, AID1449, AID1514, AID1638, AID1749, AID1750, AID488957, AID488963]
[6] = restored growth of temperature-sensitive Burl-1 yeast – whole organism, S. cerevisiae, Burl-1 ts mutant, luminescence, counter-screen for SUMOylation pathway inhibitor project, dose response (AID 463199); assay type: functional
[7] = target: T3, Microphthalmia-associated transcription factor (Homo sapiens, UniProt O75030); test: reducers of TRPM1 reporter luminescence, concentration series – cell-based, SK-MEL-5, cherry-picked, set 3, MITF inhibitor project, dose response (AID 493073); assay type: functional;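 further: SK-MEL-5 melanoma cells with luciferase driven by the MITF target TRPM1 promoter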
T3 sequence (O75030 whole entry): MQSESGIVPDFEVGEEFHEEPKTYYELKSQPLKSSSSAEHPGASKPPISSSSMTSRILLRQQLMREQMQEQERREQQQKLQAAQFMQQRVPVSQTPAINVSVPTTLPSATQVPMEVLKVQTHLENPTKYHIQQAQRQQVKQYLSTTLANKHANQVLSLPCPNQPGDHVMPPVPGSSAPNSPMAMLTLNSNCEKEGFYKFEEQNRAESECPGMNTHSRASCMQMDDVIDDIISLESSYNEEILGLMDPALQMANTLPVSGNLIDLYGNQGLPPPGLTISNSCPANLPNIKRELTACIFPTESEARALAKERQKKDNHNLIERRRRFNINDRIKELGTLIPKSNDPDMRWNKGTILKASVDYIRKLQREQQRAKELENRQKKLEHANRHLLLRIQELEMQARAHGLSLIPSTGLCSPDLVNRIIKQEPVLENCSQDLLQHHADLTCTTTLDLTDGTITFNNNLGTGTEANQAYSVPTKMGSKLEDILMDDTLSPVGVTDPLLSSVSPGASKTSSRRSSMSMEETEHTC

[8] = target: T4, Rac GTPase-activating protein 1 (Homo sapiens, UniProt Q9H0H5); test: blockers of MgcRacGAP-driven Rac1 GTP hydrolysis – biochemical, ADP Hunter fluorescence, primary and confirmatory, confirmation (AID 624330); assay type: functional
T4 sequence (Q9H0H5 whole entry): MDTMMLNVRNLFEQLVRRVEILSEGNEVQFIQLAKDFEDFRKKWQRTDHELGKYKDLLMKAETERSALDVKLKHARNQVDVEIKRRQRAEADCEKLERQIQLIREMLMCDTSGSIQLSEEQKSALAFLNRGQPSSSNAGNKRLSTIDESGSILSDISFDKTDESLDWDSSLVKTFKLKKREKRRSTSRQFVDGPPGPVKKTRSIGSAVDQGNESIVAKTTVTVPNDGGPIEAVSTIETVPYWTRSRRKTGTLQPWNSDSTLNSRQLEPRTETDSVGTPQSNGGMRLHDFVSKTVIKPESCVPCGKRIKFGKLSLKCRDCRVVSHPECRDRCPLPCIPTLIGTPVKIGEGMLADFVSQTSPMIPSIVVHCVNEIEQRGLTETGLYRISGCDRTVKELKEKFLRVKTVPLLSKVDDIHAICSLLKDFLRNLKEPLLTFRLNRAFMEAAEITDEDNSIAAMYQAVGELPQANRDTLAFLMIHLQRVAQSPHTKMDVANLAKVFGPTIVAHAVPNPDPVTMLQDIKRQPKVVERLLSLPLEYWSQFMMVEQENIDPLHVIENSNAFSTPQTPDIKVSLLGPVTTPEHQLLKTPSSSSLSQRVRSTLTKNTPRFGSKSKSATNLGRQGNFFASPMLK

[9] = target: T5, Heat shock factor protein 1 (Mus musculus, UniProt P38532); test: decrease of HSF1-responsive luciferase luminescence – cell-based, NIH3T3, dose retest, confirmation (AID 2382); assay type: functional;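 further: NIH3T3 fibroblasts with HSF1-driven luciferase reporter stressed by proteasome inhibitor MG132; luminescence from HSF1-driven luciferase expression after 8 hours of MG132 stress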
T5 sequence (P38532 whole entry): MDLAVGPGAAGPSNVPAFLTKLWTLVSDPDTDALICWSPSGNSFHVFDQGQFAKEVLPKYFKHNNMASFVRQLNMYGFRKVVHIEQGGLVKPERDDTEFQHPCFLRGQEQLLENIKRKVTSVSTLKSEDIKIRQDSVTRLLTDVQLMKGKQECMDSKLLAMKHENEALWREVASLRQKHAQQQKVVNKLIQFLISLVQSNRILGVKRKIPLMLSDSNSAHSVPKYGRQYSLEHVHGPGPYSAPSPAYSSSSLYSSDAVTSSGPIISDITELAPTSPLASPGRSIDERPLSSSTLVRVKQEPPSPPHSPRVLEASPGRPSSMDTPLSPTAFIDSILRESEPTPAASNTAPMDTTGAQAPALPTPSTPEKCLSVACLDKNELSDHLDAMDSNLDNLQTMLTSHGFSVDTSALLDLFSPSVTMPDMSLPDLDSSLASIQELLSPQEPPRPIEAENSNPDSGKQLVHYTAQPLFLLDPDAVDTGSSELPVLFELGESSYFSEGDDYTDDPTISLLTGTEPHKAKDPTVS

[10] = target: Alkaline phosphatase, placental type (Homo sapiens, UniProt P05187); test: human placental alkaline phosphatase inhibition – biochemical, luminescence, confirmation (AID 1512); assay type: functional
[11] = target: T6, Alkaline phosphatase, tissue-nonspecific isozyme (Homo sapiens, UniProt P05186); test: potency against alkaline phosphatase TNAP – biochemical, luminescent, dose response, SAR follow-up (AID 1056)
T6 sequence (P05186 whole entry): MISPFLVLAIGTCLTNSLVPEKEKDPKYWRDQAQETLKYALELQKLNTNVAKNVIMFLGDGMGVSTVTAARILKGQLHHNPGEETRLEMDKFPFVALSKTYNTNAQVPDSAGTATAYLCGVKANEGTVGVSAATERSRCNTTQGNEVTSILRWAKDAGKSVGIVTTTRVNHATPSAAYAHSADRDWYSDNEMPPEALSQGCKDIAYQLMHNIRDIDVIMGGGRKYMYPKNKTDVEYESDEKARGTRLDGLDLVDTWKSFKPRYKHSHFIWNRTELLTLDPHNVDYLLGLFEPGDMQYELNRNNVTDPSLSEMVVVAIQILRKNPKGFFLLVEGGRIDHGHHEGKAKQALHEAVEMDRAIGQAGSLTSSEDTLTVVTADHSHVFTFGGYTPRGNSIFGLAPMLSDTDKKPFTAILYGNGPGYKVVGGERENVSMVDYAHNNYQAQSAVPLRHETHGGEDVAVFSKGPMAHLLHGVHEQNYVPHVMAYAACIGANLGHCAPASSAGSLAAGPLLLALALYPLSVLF

[12] = Luminescence Cell-Based Dose Response HTS to Identify Activators of Luciferase Translation or Activity in H4 […] Cells. [Related pubchem assays: 1829 (Project Summary), 1814 (Primary HTS)]; assay type: functional
Streptokinase A = target: T7, Streptokinase A (Streptococcus pyogenes serotype M1, UniProt P10520); test: viability-normalized secreted streptokinase activity reduction – plasminogen activation absorbance, OD405, dose response (AID 1914); assay type: functional, Streptococcus pyogenes M1 GAS;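 further: secreted streptokinase activity via plasminogen activation per viability signal from cell pellet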
T7 sequence (P10520 whole entry): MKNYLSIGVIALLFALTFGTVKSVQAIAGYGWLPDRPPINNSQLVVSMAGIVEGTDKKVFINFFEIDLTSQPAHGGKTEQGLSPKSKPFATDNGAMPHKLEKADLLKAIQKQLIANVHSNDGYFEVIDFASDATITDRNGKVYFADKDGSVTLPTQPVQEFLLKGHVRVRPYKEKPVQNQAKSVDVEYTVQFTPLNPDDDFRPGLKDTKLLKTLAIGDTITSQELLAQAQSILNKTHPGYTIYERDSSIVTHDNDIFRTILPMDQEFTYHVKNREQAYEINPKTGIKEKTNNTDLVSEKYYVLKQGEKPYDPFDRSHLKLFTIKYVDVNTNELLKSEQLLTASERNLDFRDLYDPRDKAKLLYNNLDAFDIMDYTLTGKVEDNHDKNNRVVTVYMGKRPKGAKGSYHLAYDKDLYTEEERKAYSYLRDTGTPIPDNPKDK

[13] = Vero E6 cell cytotoxicity, dose response, cytotoxicity control for non-replicating M. tuberculosis project, secondary assay (AID 492998); assay type: functional, VeroE6; conditions: Vero C1008
cells = assay type: functional
[14] = tested on: Streptococcus sp. 'group A'; test: Streptococcus pyogenes SK(-)GAS viability under kanamycin – luminescence, BacTiterGlo, confirmation, counter-screen for streptokinase expression inhibitor project, dose response (AID 1900); assay type: functional, organism-based
[15] = THP-1 cell cytotoxicity, dose response, cytotoxicity control for non-replicating M. tuberculosis project (AID 489025); assay type: functional
Streptococcus = test: GAS UMAA2166 growth inhibition – luminescence, BacTiterGlo, counter-screen for streptokinase expression inhibitor project, dose response (AID 1915); assay type: functional, organism-based;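 further: potency for reduction of bacterial viability or growth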
[16] = target: Dual specificity protein phosphatase 3 (Homo sapiens, UniProt P51452); test: SAR VHR1 Fluorescent Assay for In Vitro dose response studies Set 2. [Related pubchem assays (depositor defined):AID1654, AID1661, AID1878]; assay type: functional
[17] = target: T8, Tyrosine-protein phosphatase non-receptor type 7 (Homo sapiens, UniProt P35236); test: SAR analysis of chemical inhibitors of HePTP using a Fluorescent assay - Set 2. [Related pubchem assays (depositor defined):AID1059, AID1077, AID1661, AID2085, AID521]; assay type: functional
T8 sequence (P35236 whole entry): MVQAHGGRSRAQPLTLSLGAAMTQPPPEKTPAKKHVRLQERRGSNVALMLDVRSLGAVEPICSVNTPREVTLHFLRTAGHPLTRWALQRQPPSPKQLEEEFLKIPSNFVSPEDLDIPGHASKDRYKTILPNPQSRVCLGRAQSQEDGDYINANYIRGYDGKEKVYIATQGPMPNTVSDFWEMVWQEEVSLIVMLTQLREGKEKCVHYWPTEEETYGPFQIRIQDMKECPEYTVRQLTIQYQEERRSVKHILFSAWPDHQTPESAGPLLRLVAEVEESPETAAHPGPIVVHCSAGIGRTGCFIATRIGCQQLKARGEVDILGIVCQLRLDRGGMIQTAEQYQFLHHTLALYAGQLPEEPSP

Chain of Alkaline phosphatase, placental type (P05187 whole entry): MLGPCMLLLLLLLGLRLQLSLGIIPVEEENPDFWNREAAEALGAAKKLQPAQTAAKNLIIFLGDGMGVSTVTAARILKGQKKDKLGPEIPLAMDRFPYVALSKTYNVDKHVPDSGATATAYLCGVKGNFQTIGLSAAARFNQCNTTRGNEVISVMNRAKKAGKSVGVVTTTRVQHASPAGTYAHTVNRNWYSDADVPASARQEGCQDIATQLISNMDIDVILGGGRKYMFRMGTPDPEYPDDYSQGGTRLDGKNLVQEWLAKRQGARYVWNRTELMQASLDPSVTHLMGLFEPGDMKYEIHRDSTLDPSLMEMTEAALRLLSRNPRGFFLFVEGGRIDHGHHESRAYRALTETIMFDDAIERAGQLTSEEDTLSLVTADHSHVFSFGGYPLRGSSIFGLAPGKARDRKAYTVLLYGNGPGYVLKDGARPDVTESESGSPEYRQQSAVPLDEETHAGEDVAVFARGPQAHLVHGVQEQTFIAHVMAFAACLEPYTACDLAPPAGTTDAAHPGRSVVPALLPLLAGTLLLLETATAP
Chain of Dual specificity protein phosphatase 3 (P51452 whole entry): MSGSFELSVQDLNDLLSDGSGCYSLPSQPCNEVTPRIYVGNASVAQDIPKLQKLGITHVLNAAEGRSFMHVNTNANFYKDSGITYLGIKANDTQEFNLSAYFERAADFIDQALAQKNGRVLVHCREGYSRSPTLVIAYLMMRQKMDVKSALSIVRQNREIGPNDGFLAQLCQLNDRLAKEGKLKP
Chain of E3 ubiquitin-protein ligase XIAP (P98170 whole entry): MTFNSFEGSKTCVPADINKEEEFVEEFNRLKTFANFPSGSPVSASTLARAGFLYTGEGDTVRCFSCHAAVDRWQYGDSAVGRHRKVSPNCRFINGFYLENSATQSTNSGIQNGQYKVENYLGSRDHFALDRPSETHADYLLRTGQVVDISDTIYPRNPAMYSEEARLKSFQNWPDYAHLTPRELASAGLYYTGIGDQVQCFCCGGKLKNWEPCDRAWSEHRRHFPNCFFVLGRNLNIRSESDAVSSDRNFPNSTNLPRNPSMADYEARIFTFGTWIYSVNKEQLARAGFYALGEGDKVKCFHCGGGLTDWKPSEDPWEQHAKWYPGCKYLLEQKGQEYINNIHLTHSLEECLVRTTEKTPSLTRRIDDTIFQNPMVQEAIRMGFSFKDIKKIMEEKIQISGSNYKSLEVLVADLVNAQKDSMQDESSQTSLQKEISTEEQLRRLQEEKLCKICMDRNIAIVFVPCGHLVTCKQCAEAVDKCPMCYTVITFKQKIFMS
Chain of Eukaryotic translation initiation factor 4E (P63073 whole entry): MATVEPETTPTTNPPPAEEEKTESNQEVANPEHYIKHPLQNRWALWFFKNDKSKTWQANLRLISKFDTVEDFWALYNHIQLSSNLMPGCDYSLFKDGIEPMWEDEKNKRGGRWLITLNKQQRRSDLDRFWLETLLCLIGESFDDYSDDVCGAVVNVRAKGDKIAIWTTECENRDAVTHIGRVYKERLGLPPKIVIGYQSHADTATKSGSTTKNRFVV

## CSCCC(NC(=O)COc1ccccc1)C(=O)N1CCC(C(N)=O)CC1 (centres undefined)
[1]
  IC50: 12.3 µM (active)
[2]
  IC50: > 20 µM (inactive)
Bcl-2-related protein A1
  IC50: > 20 µM (inactive)

## C#CCOCCOCCOCCNc1nc(N2CCN(C(=O)C([C@@H](C)O)n3cc([C@@H](N)CCCCN)nn3)CC2)nc(N2CCN(C(=O)[C@H](CO)n3cc([C@@H](N)C(C)C)nn3)CC2)n1 (some centres undefined)
[1]
  IC50: 8.01 µM (active)
[2]
  IC50: 7.85 µM (active)
Bcl-2-related protein A1
  IC50: > 20 µM (inactive)

## CC(=O)Nc1ccc(/N=C/c2c(O)c(C(=O)Nc3ccccc3)cc3ccccc23)cc1
[3]
  AC50: 1.01 µM (active)
[4]
  IC50: 50 µM (inactive)
[5]
  IC50: > 20 µM (inactive)

## Cc1ccc(NC2c3ncccc3C(=O)N2C2CCCCC2)cc1C (centres undefined)
[6]
  AC50: 161 µM (active)

## Nc1ccc2c(c1)OC1(CCCC1)O2
[7]
  AC50: 11.2 µM (active)
[8]
  IC50: 31.5 µM (active)
[9]
  EC50: 4.26 µM (active)
[10]
  IC50: > 100 µM (inactive)
[11]
  IC50: > 100 µM (inactive)

## Clc1ccccc1-c1n[nH]c(-c2ccccc2)n1
[10]
  IC50: > 100 µM (inactive)
[11]
  IC50: 0.641 µM (active)
[12]
  EC50: 0.348 µM (active)

## O=C(CSc1nnc(CNC(=O)c2ccco2)o1)Nc1nc2ccccc2s1
[6]
  AC50: 54 µM (active)

## COc1ccc(C(=O)Nc2nnc(-c3ccccc3)o2)cc1OC
Streptokinase A
  EC50: > 150 µM (not active)
[13]
  CC50: > 20 µM (active)
cells
  IC50: 17.2 µM (active)
[14]
  EC50: 6.46 µM (active)
[15]
  CC50: > 40 µM (active)
Streptococcus
  EC50: > 150 µM (not active)

## CCCOc1ccc(C(=S)NCc2ccc(F)c(C(F)(F)F)c2)cc1
[16]
  IC50: 71.7 µM (active)
[17]
  IC50: 39.2 µM (active)

## Oc1ccc(CCNC(=S)Nc2ccc(Cl)cc2Cl)cc1O
[16]
  IC50: 30.5 µM (active)
[17]
  IC50: 18.8 µM (active)
